# Measured values as given in publication PMC10200060, “Inhibition of DAMP actions in the tumoral microenvironment using lactoferrin-glycyrrhizin conjugate for glioblastoma therapy” (Biomaterials Research, 2023).
# Key:
# HMGB1 [1] = test: HMGB1 ELISA of U87MG culture medium; type: cell-based, human; conditions: 50 μM GL equivalent, 48 h (control 131.8 ± 11.4)
# Experimental: U87MG cells were seeded in 100 mm-cell culture dishes (2.2 × 10^6 cells per dish) and treated with GL, Lf, or Lf-GL (50 × 10^–6 M GL equivalent concentration) for 48 h. After incubating, cells were collected using a cell scrapper and were centrifuged for 3 min at 150 × g. Supernatant was collected as cell culture medium, and pellets were washed with cold PBS twice and transferred into a microcentrifuge tube. Tubes were centrifuged, and then pellets were resuspended in 500 μL 1X hypotonic buffer and incubated on ice. Then, 25 μL of NP40 was added and the mixture was agitated using a vortex mixer at the highest setting. Homogenates were centrifuged for 10 min at 842 × g at 4℃. Supernatant was collected as the cytoplasmic fraction, and pellets were resuspended in cell extraction buffer (50 μL) and were incubated for 30 min on ice with vortexing at 10 min intervals. Then, homogenates were centrifuged for 30 min at 14,000 × g at 4℃. Supernatant was collected as the nuclear fraction. The amount of HMGB1 in the samples was measured using a HMGB1 ELISA kit (Abbkine), and absorbance was measured at 450 nm in a micro-plate reader. A DNA assay (Quant-iT™ dsDNA Assay Kit, Invitrogen) was also conducted to express HMGB1 concentrations in equivalent amounts of DNA.
# HUVEC = HUVEC co-cultured with U87MG: CCK-8 at basal chamber; type: cell-based, human; conditions: HUVEC/U87MG Transwell co-culture, 100 μM GL equivalent, 24 h
# Experimental: (§1) To evaluate the inhibitory effect of Lf-GL on neovascularization in the tumor microenvironment in vitro, U87MG cells were seeded in the Transwell® insert chambers that were 6.5 mm in diameter and had 0.4 μm pore sizes (seeding density: 2.5 × 10^4 cells per well, Corning). HUVECs were seeded in the Transwell basal chamber (seeding density: 5.0 × 10^4 cells per well). GL, Lf, or Lf-GL (100 × 10^–6 M of GL equivalent concentration) were added to the insert chamber, and cells were incubated for 24 h. CCK-8 assay and HMGB1 ELISA were conducted at the basal chamber.
# HMGB1 [2] = test: HUVEC co-cultured with U87MG: HMGB1 ELISA; type: cell-based, human; conditions: HUVEC/U87MG co-culture, 100 μM GL equivalent, 24 h (control 217.8 ± 5.9)
# Experimental: as §1
# [3] = system: orthotopic GBM (U87MG) mice model; test: Survival in orthotopic GBM mouse model; type: in vivo, Balb/c nude mice; conditions: i.v. GL equivalent 50 mg kg^−1 (Lf 5 mg kg^−1), 28 days
# Experimental: To establish the orthotopic GBM mice model, GBM cells (U87MG, inoculation density: 1.0 × 10^6 cells per 10 μL) were stereotactically injected into the right striatum of Balb/c nude mice. Then, mice were randomly divided into four groups (n = 5): control, GL, Lf, and Lf-GL treated group. […] After four weeks, mice were sacrificed, and organs were harvested and fixed with 4% paraformaldehyde for further analysis.
# HMGB1 [4] = test: Immunofluorescence staining of HMGB1 in GBM tissue; type: in vivo, Balb/c nude mice; conditions: GBM mice, daily i.v. GL equivalent 50 mg kg^−1, 14 days (control 15.3 ± 1.7)
# Source text: (§2) After two weeks, mice were sacrificed, and the brains were harvested and fixed with paraformaldehyde (4%). Then, tissue processing was automatically conducted using a Leica TP1020 semi-enclosed Benchtop Tissue Processor (Leica Biosystems, Wetzlar, Hesse, Germany), followed by embedding in paraffin blocks. Paraffin blocks were sliced into 5 μm thick slices using a Leica RM2145 Microtome (Leica Biosystems). Nissl staining was used to stain brain tissue slides with pre-warmed 0.1% Cresyl Violet Stain Solution (Abcam). TUNEL assays were conducted following the manufacturer’s instructions. For immunofluorescence staining; anti-HMGB1 antibody (Abcam), anti-Ki67 antibody (Abcam), anti-CD31 antibody (Abcam), and anti-VEGF antibody (Abcam) were used as primary antibodies, and goat anti-rabbit IgG-H&L Alexa Fluor 488 and goat anti-rabbit IgG H&L Alexa Fluor 647 were used as secondary antibodies, followed by DAPI mounting.
# CD31 = test: Immunofluorescence staining of CD31 in GBM tissue; type: in vivo, Balb/c nude mice; conditions: GBM mice, daily i.v., 14 days (control MFI 14.7 ± 1.4)
# Source text: as §2
# [5] = system: orthotopic GBM (U87MG) mice model; test: Nissl staining: GBM/normal brain ratio; type: in vivo, Balb/c nude mice; conditions: daily i.v. GL equivalent 50 mg kg^−1, 14 days (control 37.5 ± 2.3)
# Source text: as §2
# [6] = system: orthotopic GBM (U87MG) mice model; test: TUNEL assay of GBM tissue; type: in vivo, Balb/c nude mice; conditions: daily i.v., 14 days (control 28.5 ± 4.8)
# Source text: as §2
# HMGB1 box A = target: HMGB1 box A; parameters: method as in PMID 17462578; conditions: previously reported; cited from earlier work
# HMGB1 box B = target: HMGB1 box B; parameters: method as in PMID 17462578; conditions: previously reported; cited from earlier work
structure (smiles),measurement,setting,value
"CC1(C)[C@@H](O[C@H]2O[C@H](C(=O)O)[C@@H](O)[C@H](O)[C@H]2O[C@@H]2O[C@H](C(=O)O)[C@@H](O)[C@H](O)[C@H]2O)CC[C@]2(C)[C@H]3C(=O)C=C4[C@@H]5C[C@@](C)(C(=O)O)CC[C@]5(C)CC[C@@]4(C)[C@]3(C)CC[C@@H]12 [GL, Glycyrrhizin]",HMGB1 released into the medium of U87MG cells,HMGB1 [1],80.7 ± 4.5 ng/mL
same,Reduction of endothelial cell proliferation,HUVEC,10.7 ± 2.9%
same,HMGB1 level in medium,HMGB1 [2],190.7 ± 19.0 ng/mL
same,Additional days of survival versus PBS control,[3],4 days
same,Mean fluorescence intensity (MFI) of HMGB1,HMGB1 [4],6.2 ± 0.8
same,Decrease of MFI of CD31,CD31,approximately 4 fold
same,GBM/normal brain ratio,[5],26.4 ± 5.7
same,TUNEL MFI,[6],16.3 ± 2.8
same,Kd,HMGB1 box A,170 ± 3 µM
same,Kd,HMGB1 box B,140 ± 3 µM
